Measurements taken from article PMC6255327, “Design of Antimicrobially Active Small Amphiphilic Peptide Dendrimers” (Molecules, 2009).
Converted amounts (≈) assume the structure as drawn. Where a name gives a salt, the structure may show the parent alone. Read-outs that look alike come from different tables or passages of the source.

What was measured:
[1] = system: E.coli ATCC 25922; format: cell-based, Escherichia coli
Description: (§1) Bacteria. Staphylococcus aureus ATCC 25923, Pseudomonas aeruginosa ATCC 27853, Escherichia coli ATCC 25922 and Staphylococcus aureus ATCC 43300 were cultivated on tryptone - soy agar (TSA; Oxoid). Klebsiella pneumoniaeATCC 13882, Bordetella bronchiseptica ATCC 4617, Acinetobacter baumannii ATCC 19606 were cultivated onto nutrient agar (Difco). Escherichia coli ATCC BAA-198 was cultivated on TSA with ceftazidime (10 µg/mL or 15.7 μM; Sigma). All strains were incubated during 24 hrs at 37 °C.
(§2) Medium. Mueller – Hinton Broth (Oxoid) was supplemented with cations: 12.5 mg Mg ^++/L and25 mg Ca^++/L. The pH of the medium after sterilization is between 7.2 and 7.4 [cation–adjusted Mueller – Hinton Broth” (CAMHB)].
(§3) Reference method. Broth microdilution susceptibility test was performed as described in […] reference method M7-A7 (2). A series of the twofold dendrimers dilutions in DMSO and twofold polymyxin B and penicillin G dilutions in CAMHB were diluted […] with CAMHB. Aliquots (95 µL) were dispensed into microdilution sterile plates (Mar-Four). Then, bacteria inoculum (5 µL) containing 5 × 10^4 CFU/mL were added. The final concentration of dendrimers ranged from 128 to 2 µg/mL [or 105 to 1.6 μM for an average molecular mass for 7 series (1213) and 61 to 0.9 μM for an average molecular mass for 10 series(2,103)], polymyxin B and penicillin G from 8 – 0.15 µg /mL (or 5.8 to 0.1 μM and 21.5 to 0.4 μM, respectively for polymyxin B and penicillin G), all in twofold dilution steps. The plates were incubated at 35 °C and read after 18 or 24 hours depending on bacterial strain. MICs (Minimal Inhibitory Concentration) was defined as the lowest drug concentration that reduced growth by 100%.

[2] = system: S. aureus ATCC 25923; test: microbe, parasite or virus in culture; format: cell-based, Staphylococcus aureus; settings: read-out: Minimal inhibitory concentration (MIC)
Description: as §1, §2, §3

[3] = system: C. albicans ATCC 90028; format: cell-based, Candida albicans; settings: ATCC 90028, 48 h, pH 7
Description: (§4) Yeasts: Candida albicans ATCC 90028, Candida parapsilosis ATCC 22019 and Candida krusei ATCC 6258 were cultivated onto Sabouraud dextrose agar (Difco) during 24 hrs at 35 °C.
(§5) Medium: RPMI – 1640 (Sigma) supplemented with 0.2% (wt/vol) glucose, 0.3 g/L L-glutamine, 0.0053 g/L phenol red, buffered with morpholinopropanesulfonic acid (MOPS; Sigma) at a final concentration of 0.165 M and adjusted to pH 7.0 was prepared.
(§6) Reference Method: The broth microdilution susceptibility test was performed as described in Clinical and Laboratory Standards Institute (CLSI) reference method M27 – A2 (1). A series of the twofold dendrimers and amphotericin B dilutions in DMSO were diluted 1:49 with RPMI.

[4] = system: S. aureus ATCC 43300; format: cell-based, Staphylococcus aureus; settings: ATCC 43300, 24 h
Description: as §1, §2, §3

[5] = system: A. baumani ATCC 19606; format: cell-based, Acinetobacter baumannii; settings: ATCC 19606, 24 h
Description: as §1, §2, §3

[6] = system: C. parapsilosis ATCC 22019; format: cell-based, Candida parapsilosis; settings: ATCC 22019, 48 h, pH 7
Description: as §4, §5, §6

[7] = system: K. pneumoniae ATCC 13882; format: cell-based, Klebsiella pneumoniae; settings: ATCC 13882, 24 h
Description: as §1, §2, §3

[8] = system: C. krusei ATCC 6258; test: microbe, parasite or virus in culture; format: cell-based, Candida krusei; settings: read-out: Minimal inhibitory concentration (MIC)
Description: as §4, §5, §6

[9] = system: P. aeruginosa ATCC 27853; format: cell-based, Pseudomonas aeruginosa; settings: ATCC 27853, 24 h
Description: as §1, §2, §3

[10] = system: E. coli ATCC BAA-198; format: cell-based, Escherichia coli; settings: ATCC BAA-198, 24 h
Description: as §1, §2, §3

[11] = system: B. bronchiseptica ATCC 4617; format: cell-based, Bordetella bronchiseptica; settings: ATCC 4617, 24 h
Description: as §1, §2, §3

[12] = E. coli ATCC 25922, broth microdilution CLSI M7-A7, CAMHB, 35 °C, read after 18 or 24 h, 100% growth reduction
[13] = S. aureus ATCC 25923, broth microdilution CLSI M7-A7, CAMHB pH 7.2-7.4, 35 °C, read after 18 or 24 h, MIC = lowest concentration that reduced growth by 100%

| Compound | Minimal inhibitory concentration (MIC) [1, 12] [µM] | MIC [2, 13] [µM] | Minimal inhibitory concentration (MIC) [3] [µM] | Minimal inhibitory concentration (MIC) [4] [µM] | Minimal inhibitory concentration (MIC) [5] [µM] | Minimal inhibitory concentration (MIC) [6] [µM] | Minimal inhibitory concentration (MIC) [7] [µM] | MIC ([8]; ATCC 6258, 48 h, pH 7) [µM] | Minimal inhibitory concentration (MIC) [9] [µM] | Minimal inhibitory concentration (MIC) [10] [µM] | Minimal inhibitory concentration (MIC) ([1]; ATCC 25922, 24 h) [µM] | Minimal inhibitory concentration (MIC) [11] [µM] | MIC ([2]; ATCC 25923, 24 h, pH 7.2) [µM] | MIC ([2]; Staphylococcus aureus, ATCC25923, S. aureus ATCC 25923, broth microdilution CLSI M7-A7, CAMHB pH 7.2-7.4, 35 °C, read after 18 or 24 h, MIC = lowest concentration that reduced growth by 100%) [µM] | MIC ([8]; Pichia kudriavzevii, ATCC6258, C. krusei ATCC 6258, broth microdilution CLSI M27-A2, RPMI-1640 with MOPS pH 7.0, 35 °C, read after 24 and 48 h, 100% growth reduction) [µM] |
| --- | --- | --- | --- | --- | --- | --- | --- | --- | --- | --- | --- | --- | --- | --- | --- |
| NCCCN(CCCN)CCC[C@@H](CO)N(CCCN)CCCN [Compound 5c, N,N’,N,N’-tetrakis(3-aminopropyl)-L-α,δ-diaminopentanol] | >226 | 113 (≈ 39.2 µg/mL) | – | – | – | – | – | – | – | – | – | – | – | – | – |
| NCCCN(CCCN)CCCC[C@@H](CO)N(CCCN)CCCN [Compound 5d, N,N’,N,N’-tetrakis(3-aminopropyl)-L-α,ε-diaminohexanol] | >221 | 221 (≈ 79.7 µg/mL) | – | – | – | – | – | – | – | – | – | – | – | – | – |
| NCCCC[C@H](NC(=O)OCc1ccccc1Cl)C(=O)NCCCN[C@@H](CN(CCCNC(=O)[C@H](CCCCN)NC(=O)OCc1ccccc1Cl)CCCNC(=O)[C@H](CCCCN)NC(=O)OCc1ccccc1Cl)C(=O)NCc1ccccc1 [Compound 7e, N,N,N’-tris[(N^α-2-chlorobenzyloxycarbonyl)-L-lysil-3-aminopropyl]-L-diaminoalanine benzylamide pentahydrochloride] | – | – | >88 | 11.8 | >89 | 88 | >89 | 44 | 24.3 | >88 | 11.8 | 11 | 2.8 | – | – |
| NCCCC[C@H](NC(=O)OCc1ccccc1Cl)C(=O)NCCCN[C@@H](CCN(CCCNC(=O)[C@H](CCCCN)NC(=O)OCc1ccccc1Cl)CCCNC(=O)[C@H](CCCCN)NC(=O)OCc1ccccc1Cl)C(=O)NCc1ccccc1 [Compound 7f, N,N,N’-tris[(N^α-2-chlorobenzyloxycarbonyl)-L-lysil-3-aminopropyl]-L-diaminobutyro benzylamide pentahydrochloride] | – | – | >89 | 10.3 | >88 | 89 | >88 | 44 | 48 | >89 | 48 | 11 | 11.7 | – | – |
| NCCCC[C@H](NC(=O)OCc1ccccc1Cl)C(=O)NCCCN[C@@H](CCCCN(CCCNC(=O)[C@H](CCCCN)NC(=O)OCc1ccccc1Cl)CCCNC(=O)[C@H](CCCCN)NC(=O)OCc1ccccc1Cl)C(=O)NCc1ccccc1 [Compound 7h, N,N,N’-tris[(N^α-2-chlorobenzyloxycarbonyl)-L-lysil-3-aminopropyl]-L-lysine benzylamide penta-hydrochloride] | – | – | >86 | 21.6 | >86 | 86 | >86 | 43 | 86 | 43 | 86 | 5.4 | 21.6 | – | – |
| NCCCC[C@H](NC(=O)OCc1ccccc1Cl)C(=O)N[C@@H](Cc1ccccc1)C(=O)NCCCN(CCCNC(=O)[C@H](Cc1ccccc1)NC(=O)[C@H](CCCCN)NC(=O)OCc1ccccc1Cl)C[C@@H](CO)N(CCCNC(=O)[C@H](Cc1ccccc1)NC(=O)[C@H](CCCCN)NC(=O)OCc1ccccc1Cl)CCCNC(=O)[C@H](Cc1ccccc1)NC(=O)[C@H](CCCCN)NC(=O)OCc1ccccc1Cl [Compound 10a, N,N',N,N’-tetrakis[(N^α-2-chlorobenzyloxycarbonyl)-L-lysil-L-phenylalanyl-3-aminopropyl]-L-α,δ-diaminopropanol hexahydrochloride] | – | – | 6.8 | 3.4 | 13.8 | 6.8 | >55 | 6.8 | 30.2 | 6.9 | 7.3 | 3.4 | 1.7 | – | – |
| NCCCC[C@H](NC(=O)OCc1ccccc1Cl)C(=O)N[C@@H](Cc1ccccc1)C(=O)NCCCN(CCCNC(=O)[C@H](Cc1ccccc1)NC(=O)[C@H](CCCCN)NC(=O)OCc1ccccc1Cl)CC[C@@H](CO)N(CCCNC(=O)[C@H](Cc1ccccc1)NC(=O)[C@H](CCCCN)NC(=O)OCc1ccccc1Cl)CCCNC(=O)[C@H](Cc1ccccc1)NC(=O)[C@H](CCCCN)NC(=O)OCc1ccccc1Cl [Compound 10b, N,N',N,N’-tetrakis[(N^α-2-chlorobenzyloxycarbonyl)-L-lysil-L-phenylalanyl-3-aminopropyl]-L-α,δ-diaminobutanol hexahydrochloride] | – | – | 6.9 | 7.3 | 13.8 | 6.9 | >55 | 6.9 | 47 | 6.9 | 7.3 | 3.4 | 1.3 | – | – |
| CC1(C)S[C@@H]2[C@H](NC(=O)Cc3ccccc3)C(=O)N2[C@H]1C(=O)O [Penicillin G, reference compound] | – | – | – | – | – | – | – | – | – | – | – | – | – | 6.6 (≈ 2.21 µg/mL) | – |
| C[C@@H]1[C@H](O)[C@@H](C)/C=C/C=C/C=C/C=C/C=C/C=C/C=C/[C@H](O[C@@H]2O[C@H](C)[C@@H](O)[C@H](N)[C@@H]2O)C[C@@H]2O[C@](O)(C[C@@H](O)C[C@@H](O)[C@H](O)CC[C@@H](O)C[C@@H](O)CC(=O)O[C@H]1C)C[C@H](O)[C@H]2C(=O)O [amphotericin B, reference compound] | – | – | – | – | – | – | – | – | – | – | – | – | – | – | 1.1 (≈ 1.02 µg/mL) |
